Experimental data: patent US11976072B2, “Diacylglycerol kinase modulating compounds” (priority 2021, dated 2024)

Tests used:
human DGKα = human DGKα (Homo sapiens, UniProt P23743); test: DGKα Biochemical Activity Assay (ADP-Glo); settings: recombinant DGKα 1 nM, 100 μM ATP, 18:1 DAG/POPS/octylglucoside micelles, 1 hour at 25° C.; geometric mean; read-out: HTBS DGKa 1X ATP KM IC50;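 further: luminescent detection of ADP produced as DGKα phosphorylates DAG to phosphatidic acid, IC50 from four-parameter nonlinear curve fit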
Source text: Alternatively, the enzymatic activity of human DGKα was monitored in a biochemical assay in the presence or absence of compounds and using micelles containing 18:1 Diacylglycerol (DAG), 16:0-18:1 PS (POPS) and Octylglucoside as substrate. DGKα activity led to conversion of DAG and ATP to Phosphatidic Acid (PA) and ADP. Levels of ADP were monitored by bioluminescence using the ADP-Glo Kinase Assay (Promega) and were indicative of DGKα activity.
Recombinant DGKα (Carna Biosciences) in assay buffer (5 μL in 50 mM MOPS [3-(N-morpholino) propanesulfonic acid], pH 7.2; 0.0025% Triton X-100; 1 mM dithiothreitol; 5 mM MgCl2, 200 μM ATP) was added to the compound-containing plate and was incubated for 15 minutes at 25° C. […] The reaction mixture was incubated at 25° C. for 1 hour. ADP-Glo Reagent (10 μL, 10 mM Mg added) provided by the kit was added to each well and incubated at 25° C. for 40 minutes. Then, 20 μL of Kinase Detection Reagent was added and incubated at 25° C. for 40 minutes. Luciferase activity of each well was measured via luminescence on an Envision plate reader (PerkinElmer).
Least squares curve fittings were performed using a four-parameter variable slope nonlinear regression model. […] IC50 values from multiple experiments were averaged by geometric mean and the standard deviation was calculated.

[1] = tested on: Jurkat NFκB-luciferase cells; test: Jurkat NFκB-Luciferase Assay; type: cell-based; settings: Homo sapiens; Jurkat NFκB-luciferase cells activated with anti-CD3 antibody (OKT3), 2.5 hrs at 37° C.; geometric mean; read-out: DGK NFKb Luciferase EC50
In short: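 Luminescence from One-Glo Ex, read 7 min post-addition, reports NFκB activation in Jurkat luciferase reporter cells. Cells, diluted to 1 million cells/ml in 10% FBS RPMI, were dispensed onto plates holding compound and washed, pre-bound antibody.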

human DGKα, sequence (P23743 whole entry): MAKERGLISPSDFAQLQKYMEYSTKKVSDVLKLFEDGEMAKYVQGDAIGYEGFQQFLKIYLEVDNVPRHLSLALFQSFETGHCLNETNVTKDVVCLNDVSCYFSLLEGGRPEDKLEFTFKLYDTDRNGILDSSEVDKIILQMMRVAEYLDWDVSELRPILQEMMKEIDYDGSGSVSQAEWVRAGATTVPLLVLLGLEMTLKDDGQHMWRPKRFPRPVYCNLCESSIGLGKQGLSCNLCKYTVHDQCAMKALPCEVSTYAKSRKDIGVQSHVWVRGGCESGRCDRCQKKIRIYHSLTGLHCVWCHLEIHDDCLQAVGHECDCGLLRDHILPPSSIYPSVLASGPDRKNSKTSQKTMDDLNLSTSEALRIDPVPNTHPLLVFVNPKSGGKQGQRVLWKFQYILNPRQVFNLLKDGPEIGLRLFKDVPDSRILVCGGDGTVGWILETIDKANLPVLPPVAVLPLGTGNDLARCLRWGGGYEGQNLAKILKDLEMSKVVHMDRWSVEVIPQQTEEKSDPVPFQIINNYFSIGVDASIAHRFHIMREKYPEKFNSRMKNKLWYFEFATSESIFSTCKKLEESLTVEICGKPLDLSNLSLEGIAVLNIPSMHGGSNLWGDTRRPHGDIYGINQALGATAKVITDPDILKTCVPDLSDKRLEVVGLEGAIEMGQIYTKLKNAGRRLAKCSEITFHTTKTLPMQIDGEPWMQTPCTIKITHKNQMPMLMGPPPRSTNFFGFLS

IC50 (human DGKα) [nM]	EC50 [1] [nM]	Structure (SMILES)
3.8	2.81	CC1(C#Cc2cc(N(CC(F)F)c3nc4nncn4c4ccc(F)cc34)ccn2)CC1 [Example 102, N-(2,2-difluoroethyl)-7-fluoro-N-(2-((1-methylcyclopropyl)ethynyl)pyridin-4-yl)-[1,2,4]triazolo[4,3-a]quinazolin-5-amine]
5.13	2.27	Fc1ccc2c(c1)c(N(CC(F)F)c1ccnc(C#CC3(C(F)(F)F)CC3)c1)nc1nncn12 [Example 103, N-(2,2-difluoroethyl)-7-fluoro-N-(2-((1-(trifluoromethyl)cyclopropyl)ethynyl)pyridin-4-yl)-[1,2,4]triazolo[4,3-a]quinazolin-5-amine]
8.06	8.95	Cc1nnc2nc(N(CC(F)F)c3cc(F)cc(C#CC(C)(C)O)c3)c3c(F)cc(Cl)cc3n12 [Example 104, 4-(3-((8-chloro-6-fluoro-1-methyl-[1,2,4]triazolo[4,3-a]quinazolin-5-yl)(2,2-difluoroethyl)amino)-5-fluorophenyl)-2-methylbut-3-yn-2-ol]
30.6	27.1	Cc1cc(F)cc2c(N(CC(F)F)c3cc(F)cc(C#CC(C)(C)O)c3)nc3nncn3c12 [Example 105]
118	2.53	Cc1cc(F)cc2c(N(CC(F)F)c3cc(F)cc(C#CC4(C(F)(F)F)CC4)c3)nc3nncn3c12 [Example 106]
39.9	3.21	Cc1cccc2c(N3CCOCc4c(C#CC5(C(C)(F)F)CC5)cccc43)nc3nncn3c12 [Example 107]
4.69	2.84	Cc1nnc2nc(N3CCOCc4c(C#CC5CC5)cccc43)c3cc(C#N)ccc3n12 [Example 108]
7.3	1.67	Cc1nnc2nc(N3CCOCc4c(C#CC5(C)CC5)cccc43)c3cc(C#N)ccc3n12 [Example 109]
2.76	9.8	CC(C)(O)C#Cc1cccc2c1CCCCN2c1nc2nncn2c2c(F)ccc(F)c12 [Example 110]
6.5	45.8	CC(C)(O)C#Cc1cccc2c1COCCN2c1nc2nncn2c2c(F)ccc(F)c12 [Example 111]
3.48	0.716	Fc1ccc(F)c2c1c(N1CCOCc3c(C#CC4(C(F)(F)F)CC4)cccc31)nc1nncn12 [Example 112]
1.44	0.9	CC1(C#Cc2cccc3c2COCCN3c2nc3nncn3c3c(F)ccc(F)c23)CC1 [Example 113]
6.76	12.5	CC(C)(O)C#Cc1cc(F)cc2c1CCCN2c1nc2nncn2c2c(F)cc(F)cc12 [Example 114]
32.8	2.37	Cc1nnc2nc(N3CCCOc4c(C#CC5(C(C)(F)F)CC5)cccc43)c3c(F)c(F)ccc3n12 [Example 115]
5.19	1.07	Cc1nnc2nc(N3CCCOc4c(C#CC5CC5)cccc43)c3c(F)c(F)ccc3n12 [Example 116]
14.8	1.32	CC1(C#Cc2cccc3c2CCCN3c2nc3nncn3c3c(F)ccc(F)c23)CC1 [Example 117]
4.89	5.81	Fc1cc(F)c2c(c1)c(N1CCCc3c(C#CC4(C(F)(F)F)CC4)cccc31)nc1nncn12 [Example 118]
2.13	2.86	Fc1cc(F)c2c(c1)c(N1CCCc3c(C#CC4(C(F)F)CC4)cccc31)nc1nncn12 [Example 119]
4.99	12.3	CC(C)(O)C#Cc1cccc2c1CCCN2c1nc2nncn2c2c(F)cc(F)cc12 [Example 120]

IC50 (human DGKα) [nM]	EC50 [1] [nM]	Structure (SMILES)
22.8	4.95	Fc1cccc2c1c(N1CCCOc3c(C#CC4(C(F)(F)F)CC4)cccc31)nc1nncn12 [Example 121]
5.27	2.63	Cc1nnc2nc(N3CCCOc4c(C#CC5(C)CC5)cccc43)c3c(F)c(F)ccc3n12 [Example 122]
31.5	0.533	CC(C)(C#Cc1cccc2c1OCCCN2c1nc2nncn2c2cccc(F)c12)C(F)(F)F [Example 123]
16.8	0.781	CC(C)(C#Cc1cccc2c1COCCN2c1nc2nnc(N)n2c2cccc(F)c12)C(F)(F)F [Example 124, 6-fluoro-5-(6-(4,4,4-trifluoro-3,3-dimethylbut-1-yn-1-yl)-2,3-dihydrobenzo[e][1,4]oxazepin-1(5H)-yl)-[1,2,4]triazolo[4,3-a]quinazolin-1-amine]
16.4	2.9	Cc1nnc2nc(N3CCCc4c(C#CC(C)(C)C#N)cccc43)c3c(Cl)cccc3n12 [Example 125, 4-(1-(6-chloro-1-methyl-[1,2,4]triazolo[4,3-a]quinazolin-5-yl)-1,2,3,4-tetrahydroquinolin-5-yl)-2,2-dimethylbut-3-ynenitrile]
17.2	1.16	Cc1nnc2nc(N3CCCc4c(C#CC5(C(F)F)CC5)cccc43)c3c(Cl)cccc3n12 [Example 126, 6-chloro-5-(5-((1-(difluoromethyl)cyclopropyl)ethynyl)-3,4-dihydroquinolin-1(2H)-yl)-1-methyl-[1,2,4]triazolo[4,3-a]quinazoline]
8.42	2.02	CC1(C#Cc2cccc3c2COCCN3c2nc3nnc(N)n3c3cccc(F)c23)CC1 [Example 127]
20.8	7.48	Cc1nnc2nc(N(CC(F)F)c3cc(F)cc(-c4ccc(C(C)(C)O)cc4)c3)c3c(F)cccc3n12 [Example 128, 2-(3′-((2,2-difluoroethyl)(6-fluoro-1-methyl-[1,2,4]triazolo[4,3-a]quinazolin-5-yl)amino)-5′-fluoro-[1,1′-biphenyl]-4-yl)propan-2-ol]
7.55	1.22	Cc1nnc2nc(N3CCCc4c(C#CC5CCCCO5)cccc43)c3c(F)cccc3n12 (stereo not shown) [Example 129, 6-fluoro-1-methyl-5-(5-((tetrahydro-2H-pyran-2-yl)ethynyl)-3,4-dihydroquinolin-1(2H)-yl)-[1,2,4]triazolo[4,3-a]quinazoline]
4.19	1.98	Cc1nnc2nc(N3CCCc4c(C#CC5CCCCO5)cccc43)c3cc(F)ccc3n12 (stereo not shown) [Example 130, 7-fluoro-1-methyl-5-(5-((tetrahydro-2H-pyran-2-yl)ethynyl)-3,4-dihydroquinolin-1(2H)-yl)-[1,2,4]triazolo[4,3-a]quinazoline]
8.68	2.14	Cc1nnc2nc(N3CCCc4c(C#CC5CC5)cccc43)c3c(F)c(F)ccc3n12 [Example 131, 5-[5-(2-cyclopropylethynyl)-3,4-dihydro-2H-quinolin-1-yl]-6,7-difluoro-1-methyl-[1,2,4]triazolo[4,3-a]quinazoline]
3.1	6.64	Cc1nnc2nc(N3CCOCc4c3ccnc4C#CC3(C)CC3)c3cc(F)ccc3n12 [Example 132, 1-(7-fluoro-1-methyl-[1,2,4]triazolo[4,3-a]quinazolin-5-yl)-6-((1-methylcyclopropyl)ethynyl)-1,2,3,5-tetrahydropyrido[4,3-e][1,4]oxazepine]
15.1	5.69	Cc1nnc2nc(N3CCOCc4c3ccnc4C#CC3(C(C)(F)F)CC3)c3cc(F)ccc3n12 [Example 133, 6-((1-(1,1-difluoroethyl)cyclopropyl)ethynyl)-1-(7-fluoro-1-methyl-[1,2,4]triazolo[4,3-a]quinazolin-5-yl)-1,2,3,5-tetrahydropyrido[4,3-e][1,4]oxazepine]
9.88	8.21	Cc1nnc2nc(N3CCOCc4c3ccnc4C#CC(C)(C)C(F)(F)F)c3cc(F)ccc3n12 [Example 134, 1-(7-fluoro-1-methyl-[1,2,4]triazolo[4,3-a]quinazolin-5-yl)-6-(4,4,4-trifluoro-3,3-dimethylbut-1-yn-1-yl)-1,2,3,5-tetrahydropyrido[4,3-e][1,4]oxazepane]
5.49	6.06	Cc1nnc2nc(N3CCOCc4c3ccnc4C#CC3(C(F)F)CC3)c3c(F)cccc3n12 [Example 135, 6-((1-(difluoromethyl)cyclopropyl)ethynyl)-1-(6-fluoro-1-methyl-[1,2,4]triazolo[4,3-a]quinazolin-5-yl)-1,2,3,5-tetrahydropyrido[4,3-e][1,4]oxazepine]
11.1	13.9	Cc1nnc2nc(N3CCOCc4c3ccnc4C#CC(C)(C)C(F)F)c3c(F)cccc3n12 [Example 136, 6-(4,4-difluoro-3,3-dimethylbut-1-yn-1-yl)-1-(6-fluoro-1-methyl-[1,2,4]triazolo[4,3-a]quinazolin-5-yl)-1,2,3,5-tetrahydropyrido[4,3-e][1,4]oxazepine]
17.7	106	Cc1nnc2nc(N3CCOCc4c3ccnc4C#CC(C)(C)NC(=O)C3(C(F)(F)F)CC3)c3c(F)cccc3n12 [Example 137, N-(4-(1-(6-fluoro-1-methyl-[1,2,4]triazolo[4,3-a]quinazolin-5-yl)-1,2,3,5-tetrahydropyrido[4,3-e][1,4]oxazepin-6-yl)-2-methylbut-3-yn-2-yl)-1-(trifluoromethyl)cyclopropane-1-carboxamide]
28.9	43.3	Cc1nnc2nc(N3CCOCc4c(C#CC(C)(C)NC(=O)c5cn(C)nc5C(F)(F)F)cccc43)c3c(F)cccc3n12 [Example 138, N-(4-(1-(6-fluoro-1-methyl-[1,2,4]triazolo[4,3-a]quinazolin-5-yl)-1,2,3,5-tetrahydrobenzo[e][1,4]oxazepin-6-yl)-2-methylbut-3-yn-2-yl)-1-methyl-3-(trifluoromethyl)-1H-pyrazole-4-carboxamide]
72.6	41.3	Cc1nnc2nc(N3CCOCc4c(C#CC(C)(C)NC(=O)c5cn(C)nc5C(F)F)cccc43)c3c(F)cccc3n12 [Example 139, 3-(difluoromethyl)-N-[3-[1-(6-fluoro-1-methyl-[1,2,4]triazolo[4,3-a]quinazolin-5-yl)-3,5-dihydro-2H-4,1-benzoxazepin-6-yl]-1,1-dimethyl-prop-2-ynyl]-1-methyl-pyrazole-4-carboxamide]
